Among the test systems are A549 NSCLC; CCRF-CEM leukemia; KM12 colon; LOX IMVI melanoma; M14 melanoma; MALME-3M melanoma; MDA-MB-435; MOLT-4 leukemia; NCI-H23 lung; SK-MEL-28 melanoma.
What all share (assay): DTP human tumour cell line panel, 48 h

Usually GI50 stands for the concentration that inhibits growth by half. The term TGI denotes the concentration giving total growth inhibition. A lower TGI goes with more potent growth arrest.

Molecules are shown by their SMILES. Values joined by “and” are separate entries in the source; they are usually repeats but may differ in a detail not shown here. Equal values may be shown once.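 Method: 48-hour compound exposure of cells in 96-well plates, five concentrations, linear interpolation of endpoints. GI50 = concentration required for 50% inhibition of growth. TGI is the concentration that stops growth completely.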 Some results are limits rather than exact numbers.

As for `O=C1NC2C(=CC(O)C(O)C2O)c2cc3c(cc21)OCO3` (centres undefined), the GI50 in the experiment on A549 NSCLC was 462 nM and 273 nM; in the experiment on CCRF-CEM leukemia it was 154 nM and 115 nM; in the experiment with KM12 colon it was 336 nM and 129 nM; in the experiment with LOX IMVI melanoma it was 115 nM; in the experiment on M14 melanoma it was 424 nM; in the experiment with MALME-3M melanoma, 426 nM and 193 nM. Moreover, the 50% growth inhibitory concentration (GI50) was 305 nM and 454 nM in the experiment with MOLT-4 leukemia; 325 nM and 205 nM in the experiment with NCI-H23 lung; 201 nM with SK-MEL-28 melanoma. Besides, the TGI with A549 NSCLC was 6.87 µM and 4.1 µM; with CCRF-CEM leukemia, 0.875 µM and 3.55 µM; in the experiment with KM12 colon, 1.75 µM and 3.53 µM; with LOX IMVI melanoma, 0.67 µM and 1.53 µM; with M14 melanoma, 1.41 µM; with MALME-3M melanoma it was 1.29 µM and 1.86 µM. Further, the TGI in the experiment on MDA-MB-435 was 0.965 µM; with MOLT-4 leukemia, 0.511 µM and 1.24 µM; in the experiment on NCI-H23 lung, 2 µM and 2.84 µM; in the experiment with SK-MEL-28 melanoma it was 2.06 µM and 2.88 µM.

On to `COCCNc1ccc2c3c(cccc13)C(=O)N(CCN(C)C)C2=O`, for which the GI50 is 6350 nM with A549 NSCLC; 6380 nM in the experiment on CCRF-CEM leukemia; 8650 nM in the experiment on KM12 colon; 7060 nM with LOX IMVI melanoma; 7980 nM with M14 melanoma; 6130 nM in the experiment on MALME-3M melanoma. Besides, the GI50 in the experiment on MDA-MB-435 was 8150 nM; with MOLT-4 leukemia it was 4980 nM; in the experiment on NCI-H23 lung it was 8040 nM; with SK-MEL-28 melanoma, 7160 nM. Moreover, the TGI in the experiment on A549 NSCLC is greater than 25 µM; in the experiment on CCRF-CEM leukemia, greater than 25 µM; in the experiment with KM12 colon it was greater than 25 µM; with LOX IMVI melanoma it was greater than 25 µM; in the experiment on M14 melanoma it was greater than 25 µM; in the experiment on MALME-3M melanoma it was 21.1 µM. The TGI in the experiment with MDA-MB-435 was greater than 25 µM; in the experiment with MOLT-4 leukemia, 13 µM; in the experiment on NCI-H23 lung it was greater than 25 µM; in the experiment on SK-MEL-28 melanoma it was 23.1 µM.

On to `Cc1cc(O)cc(C)c1/C=C/c1cncc(C(N)=O)c1`, for which the GI50 with A549 NSCLC is 3480 nM; in the experiment with CCRF-CEM leukemia it was 2880 nM; in the experiment with KM12 colon it was 1250 nM; with LOX IMVI melanoma, 1940 nM; in the experiment on M14 melanoma, 1200 nM; in the experiment on MALME-3M melanoma, 1640 nM. Besides, the GI50 was 538 nM with MDA-MB-435, 3270 nM in the experiment on MOLT-4 leukemia, 7240 nM in the experiment with NCI-H23 lung and 2300 nM in the experiment on SK-MEL-28 melanoma. Further, the total growth inhibition concentration (TGI) in the experiment on A549 NSCLC is greater than 25 µM; with CCRF-CEM leukemia, greater than 25 µM; in the experiment with KM12 colon it was greater than 25 µM; with LOX IMVI melanoma it was greater than 25 µM; in the experiment with M14 melanoma, 7.75 µM; with MALME-3M melanoma, 24.4 µM. The concentration for total growth inhibition (TGI) was 1.77 µM in the experiment with MDA-MB-435, greater than 25 µM in the experiment with MOLT-4 leukemia, greater than 25 µM with NCI-H23 lung and greater than 25 µM in the experiment with SK-MEL-28 melanoma.

With `C=C1C(=O)O[C@H]2[C@H]1CC/C(C=Nc1c(N)cc(C(F)(F)F)cc1C(F)(F)F)=C\CC[C@@]1(C)O[C@@H]21`, the GI50 is 1950 nM with A549 NSCLC; 550 nM with CCRF-CEM leukemia; 1990 nM in the experiment on KM12 colon; 1070 nM in the experiment on LOX IMVI melanoma; 1730 nM with M14 melanoma; 2000 nM in the experiment on MALME-3M melanoma. The GI50 in the experiment with MDA-MB-435 is 2030 nM; in the experiment with MOLT-4 leukemia, 517 nM; in the experiment on NCI-H23 lung it was 1770 nM; with SK-MEL-28 melanoma it was 1870 nM. For the same molecule, the TGI with A549 NSCLC is 3.74 µM; in the experiment on CCRF-CEM leukemia, greater than 100 µM; in the experiment with KM12 colon, 4.74 µM; in the experiment with LOX IMVI melanoma it was 2.3 µM; with M14 melanoma it was 3.67 µM; with MALME-3M melanoma it was 3.95 µM. The TGI in the experiment with MDA-MB-435 is 6.05 µM; with MOLT-4 leukemia, greater than 100 µM; in the experiment with NCI-H23 lung it was 4.17 µM; in the experiment on SK-MEL-28 melanoma, 3.83 µM.

`Cn1nc(C(F)(F)F)cc1-c1c[nH]c(OCc2ccc(Cl)cc2)c(-c2ccc(Cl)c(C(F)(F)F)c2)c1=O`: the GI50 is 1450 nM with A549 NSCLC; 998 nM in the experiment with CCRF-CEM leukemia; 1260 nM in the experiment on KM12 colon; 1230 nM with LOX IMVI melanoma; 1270 nM with M14 melanoma; 1090 nM in the experiment on MALME-3M melanoma. For the same molecule, the GI50 with MDA-MB-435 is 1370 nM; in the experiment on MOLT-4 leukemia, 1160 nM; with NCI-H23 lung, 1050 nM; with SK-MEL-28 melanoma, 1070 nM. For the same molecule, the TGI with A549 NSCLC is greater than 50 µM; in the experiment with CCRF-CEM leukemia, greater than 50 µM; in the experiment with KM12 colon it was 4.86 µM; in the experiment with LOX IMVI melanoma it was 3.56 µM; in the experiment on M14 melanoma, 4.26 µM; in the experiment with MALME-3M melanoma, 3.07 µM. Further, the total growth inhibition concentration (TGI) was determined as 6.75 µM in the experiment with MDA-MB-435, 3.03 µM in the experiment with MOLT-4 leukemia, 5.95 µM with NCI-H23 lung and 3.97 µM in the experiment on SK-MEL-28 melanoma.

Regarding `COc1cccc(/C=N/NC(=O)c2ccccc2N2CCCC2)c1O`, the GI50 is 18800 nM in the experiment with A549 NSCLC; 712 nM with CCRF-CEM leukemia; 38400 nM in the experiment with KM12 colon; 2540 nM with LOX IMVI melanoma; 3080 nM in the experiment on M14 melanoma; 15000 nM with MALME-3M melanoma. Further, the GI50 with MDA-MB-435 was 18300 nM; in the experiment with MOLT-4 leukemia it was 1520 nM; in the experiment on NCI-H23 lung, 7850 nM; in the experiment with SK-MEL-28 melanoma it was 5270 nM. Further, the TGI with A549 NSCLC is greater than 100 µM; in the experiment with CCRF-CEM leukemia, greater than 100 µM; in the experiment on KM12 colon, greater than 100 µM; in the experiment with LOX IMVI melanoma it was greater than 100 µM; in the experiment with M14 melanoma it was 24.2 µM; in the experiment with MALME-3M melanoma it was 88.1 µM. Further, the concentration for total growth inhibition (TGI) in the experiment with MDA-MB-435, in the experiment on MOLT-4 leukemia, with NCI-H23 lung and in the experiment with SK-MEL-28 melanoma was greater than 100 µM in each case.

`O=C(O)C(C(=O)O)P(=S)(S)c1ccccc1` (centres undefined): the concentration for total growth inhibition (TGI) with A549 NSCLC, in the experiment with CCRF-CEM leukemia, with KM12 colon, with LOX IMVI melanoma, with M14 melanoma and in the experiment on MALME-3M melanoma was greater than 100 µM throughout. Moreover, the concentration for total growth inhibition (TGI) in the experiment on MDA-MB-435, in the experiment with MOLT-4 leukemia, in the experiment on NCI-H23 lung and in the experiment on SK-MEL-28 melanoma was greater than 100 µM in each case.

For `CCOC(=O)c1cc(C(=O)c2cc(OC)c(OC)c(OC)c2)n2c1ccc1ccccc12`, the GI50 in the experiment on A549 NSCLC is 286 nM; with CCRF-CEM leukemia it was 322 nM; in the experiment on KM12 colon, 260 nM; in the experiment with LOX IMVI melanoma, 669 nM; in the experiment with M14 melanoma, 137 nM; in the experiment with MALME-3M melanoma it was 634 nM. Also, the GI50 is 36.7 nM with MDA-MB-435, 477 nM in the experiment on MOLT-4 leukemia, 478 nM in the experiment with NCI-H23 lung and 1450 nM in the experiment with SK-MEL-28 melanoma. Further, the TGI with A549 NSCLC, in the experiment with CCRF-CEM leukemia, in the experiment with KM12 colon, in the experiment with LOX IMVI melanoma, in the experiment with M14 melanoma and in the experiment with MALME-3M melanoma was greater than 100 µM throughout. Besides, the TGI with MDA-MB-435 was 0.173 µM; in the experiment on MOLT-4 leukemia it was greater than 100 µM; in the experiment with NCI-H23 lung it was greater than 100 µM; with SK-MEL-28 melanoma, greater than 100 µM.

The values above are taken from PubChem BioAssay (NCI).
